The values that follow come from ChEMBL document CHEMBL1641487, “Aspergilones A and B, two benzylazaphilones with an unprecedented carbon skeleton from the gorgonian-derived fungus Aspergillus sp” (Bioorg Med Chem Lett, 2011).

≈ marks a conversion by molar mass, not a printed value.

The test system of one experiment is HL-60. As to the kind of experiment: Cytotoxicity against human HL60 cells. It counts as functional, cell-based.
Another experiment relates to A549. The experiment is described as follows: Cytotoxicity against human A549 cells. In kind it is functional, cell-based.
Another experiment has as its system MCF7. The experiment is described as follows: Cytotoxicity against human MCF7 cells. It counts as functional, cell-based.
The test system of another experiment is Amphibalanus amphitrite. The experiment is described as follows: Antifouling activity against Balanus amphitrite assessed as larval settlement barnacle. In kind it is functional, organism-based.

Turning to `CC1=C2C(=CO[C@@H](C)[C@@H]2C)C(=O)[C@@](Cc2ccccc2)(C[C@]2(Cc3ccccc3)C(=O)C3=CO[C@@H](C)[C@H](C)C3=C(C)C2=O)C1=O` [ASPERGILONE B], the IC50 in the experiment with HL-60, in the experiment with A549 and with MCF7 was more than 50 µg/mL each time.

As to `CC1=C2C(=CO[C@@H](C)[C@@H]2C)C(=O)C(Cc2ccccc2)(Cc2ccccc2)C1=O` [ASPERGILONE A], the EC50 with Amphibalanus amphitrite worked out at 25 µg/mL (≈ 64.7 µM). Also, the IC50 in the experiment on HL-60 was 3.2 µg/mL (≈ 8.28 µM); in the experiment with A549 it was 37 µg/mL (≈ 95.7 µM); in the experiment on MCF7, 25 µg/mL (≈ 64.7 µM).
